Measured values from patent US8304446B2, “Compounds” (Glaxo Group Limited, priority 2009, dated 2012).
Counter-ions that a name gives are not always drawn.

test system: CD4+ CCR4+ T cells; assay: Chemokine stimulated increases in cellular F-actin content; assay type: cell-based; details: Homo sapiens, T-cell, 0.5 h; PBMC from normal volunteers; antagonist 30 min at 37° C. before agonist for 15 sec; F-actin content by flow cytometry; read-out: pA2 (converted)
Description: Chemokine Stimulated Increases in Cellular F-Actin Content
Blood was taken from normal volunteers who had taken no medication within the previous ten days and mixed with 1/9 of the volume of 3.8% tri-sodium citrate solution. Chemokine-induced increases in the F-actin content of CD4+ CCR4+ T cells were measured by a modification of the method of Pilette et al. (Eur. Respir. J; 23: 876-884, 2004). Peripheral blood mononuclear cells (PBMC) were isolated by dextran sedimentation followed by Percoll density gradient centrifugation. The PBMCs were incubated with FITC-conjugated anti-human CD4 and PE-conjugated anti-CCR4 antibodies or appropriate isotype controls for 15 min. The cell suspensions were then centrifuged at 400 g for 10 min and the pellets resuspended in assay buffer (phenol red-free RPMI 1640 medium containing 10 mM HEPES and 0.1% bovine serum albumin) at 10^7/mL. The resulting cell suspension was incubated with antagonist or vehicle (0.1% DMSO) for 30 min at 37° C. before stimulation with the agonist for 15 sec. The assay was terminated by addition of 3% formaldehyde. The fixed cells were washed twice with PBS (centrifuging at 1000 g for 5 min to recover the cells) and incubated at room temperature with Alexa fluor-647 phalloidin (0.075 U/mL) in the presence of lyso-phosphatidylcholine (93.75 μg/ml) for 20 min to stain F-actin. The cells were washed once more with PBS and the relative F-actin content of the cells was measured flow cytometrically. The mean fluorescence intensity of 1000 CD4^+ CCR4^+ cells per sample was determined and expressed as a fraction of the mean intensity of the CD4^+ CCR4^− cells in that sample.

SMILES | Kb [nM]
COc1cccc2c1c(NS(=O)(=O)c1ccc(Br)s1)nn2Cc1cccc(C(N)=O)c1 [Example 67, 3-{[3-{[(5-Bromo-2-thienyl)sulfonyl]amino}-4-(methyloxy)-1H-indazol-1-yl]methyl}benzamide] | ≤ 126
COc1cccc2c1c(NS(=O)(=O)c1ccc(Cl)s1)nn2Cc1cccc(CNC(=O)CO)c1 [Example 32, N-[(3-{[3-{[(5-Chloro-2-thienyl)sulfonyl]amino}-4-(methyloxy)-1H-indazol-1-yl]methyl}phenyl)methyl]-2-hydroxyacetamide] | ≤ 126
COc1cccc2c1c(NS(=O)(=O)c1ccc(Cl)s1)nn2Cc1cccc(CNC(=O)NC(C)C)c1 [Example 61, 5-Chloro-N-[1-({3-[({[(1-methylethyl)amino]carbonyl}amino)methyl]phenyl}methyl)-4-(methyloxy)-1H-indazol-3-yl]-2-thiophenesulfonamide] | ≤ 126
NC(=O)c1cccc(Cn2nc(NS(=O)(=O)c3ccc(Cl)s3)c3c(O)ccc(F)c32)c1 [Example 69, 3-[(3-{[(5-Chloro-2-thienyl)sulfonyl]amino}-7-fluoro-4-hydroxy-1H-indazol-1-yl)methyl]benzamide] | ≤ 126
COc1cc(F)cc2c1c(NS(=O)(=O)c1ccc(Cl)s1)nn2Cc1cccc(CNC(C)=O)c1 [Example 129, N-[(3-{[3-{[(5-Chloro-2-thienyl)sulfonyl]amino}-6-fluoro-4-(methyloxy)-1H-indazol-1-yl]methyl}phenyl)methyl]acetamide] | ≤ 126
COc1cccc2c1c(NS(=O)(=O)c1ccc(Cl)s1)nn2Cc1cccc(CNC(=O)CCN)c1 [Example 78, N^1-[(3-{[3-{[(5-Chloro-2-thienyl)sulfonyl]amino}-4-(methyloxy)-1H-indazol-1-yl]methyl}phenyl)methyl]-β-alaninamide trifluoroacetate] | ≤ 126
COc1cccc2c1c(NS(=O)(=O)c1ccc(Cl)s1)nn2Cc1cccc(C(N)=O)c1 [Example 64, 3-{[3-{[(5-Chloro-2-thienyl)sulfonyl]amino}-4-(methyloxy)-1H-indazol-1-yl]methyl}benzamide] | ≤ 126
COc1cccc2c1c(NS(=O)(=O)c1ccc(Cl)s1)nn2Cc1cccc(CNC(=O)NC(C)(C)C)c1 [Example 60, 5-Chloro-N-[1-({3-[({[(1,1-dimethylethyl)amino]carbonyl}amino)methyl]phenyl}methyl)-4-(methyloxy)-1H-indazol-3-yl]-2-thiophenesulfonamide] | ≤ 126
COc1cccc2c1c(NS(=O)(=O)c1ccc(Cl)s1)nn2Cc1ccc(S(N)(=O)=O)cc1 [Example 62, N-[1-{[4-(Aminosulfonyl)phenyl]methyl}-4-(methyloxy)-1H-indazol-3-yl]-5-chloro-2-thiophenesulfonamide] | ≤ 126
O=C(NCc1cccc(Cn2nc(NS(=O)(=O)c3ccc(Cl)s3)c3c(O)cccc32)c1)[C@H]1COCCN1 [Example 111, (3R)—N-({3-[(3-{[(5-chloro-2-thienyl)sulfonyl]amino}-4-hydroxy-1H-indazol-1-yl)methyl]phenyl}methyl)-3-morpholinecarboxamide formate salt] | ≤ 126
COc1cccc2c1c(NS(=O)(=O)c1ccc(Cl)s1)nn2Cc1cccc(CNC(=O)[C@@]2(C)CCCN2)c1 [Example 13, N-[(3-{[3-{[(5-Chloro-2-thienyl)sulfonyl]amino}-4-(methyloxy)-1H-indazol-1-yl]methyl}phenyl)methyl]-2-methyl-D-prolinamide] | ≤ 126
COc1cccc2c1c(NS(=O)(=O)c1ccc(Cl)s1)nn2Cc1cccc(CNC(=O)C2(N)CCC2)c1 [Example 83, 1-Amino-N-[(3-{[3-{[(5-chloro-2-thienyl)sulfonyl]amino}-4-(methyloxy)-1H-indazol-1-yl]methyl}phenyl)methyl]cyclobutanecarboxamide trifluoroacetate] | ≤ 126
CNC(=O)[C@@H](N)CC(=O)NCc1cccc(Cn2nc(NS(=O)(=O)c3ccc(Cl)s3)c3c(OC)cccc32)c1 [Example 22, N^4-[(3-{[3-{[(5-chloro-2-thienyl)sulfonyl]amino}-4-(methyloxy)-1H-indazol-1-yl]methyl}phenyl)methyl]-N^1-methyl-L-aspartamide trifluoroacetate] | ≤ 126
COc1cccc2c1c(NS(=O)(=O)c1ccc(Cl)s1)nn2Cc1cccc(CNC(=O)C2(C)CCCCN2)c1 (stereo not shown) [Example 14, N-[(3-{[3-{[(5-chloro-2-thienyl)sulfonyl]amino}-4-(methyloxy)-1H-indazol-1-yl]methyl}phenyl)methyl]-2-methyl-2-piperidinecarboxamide] | ≤ 126
COC[C@H](N)C(=O)NCc1cccc(Cn2nc(NS(=O)(=O)c3ccc(Cl)s3)c3c(OC)cccc32)c1 [Example 54, N^1-[(3-{[3-{[(5-Chloro-2-thienyl)sulfonyl]amino}-4-(methyloxy)-1H-indazol-1-yl]methyl}phenyl)methyl]-O-methylserinamide trifluoroacetate] | ≤ 126
CNC1(C(=O)NCc2cccc(Cn3nc(NS(=O)(=O)c4ccc(Cl)s4)c4c(OC)cccc43)c2)CC1 [Example 15, N-[(3-{[3-{[(5-Chloro-2-thienyl)sulfonyl]amino}-4-(methyloxy)-1H-indazol-1-yl]methyl}phenyl)methyl]-1-(methylamino)cyclopropanecarboxamide hydrochloride] | ≤ 126
COc1cccc2c1c(NS(=O)(=O)c1ccc(Cl)s1)nn2Cc1cccc(CNC(=O)CN(C)C)c1 [Example 86, N^1-[(3-{[3-{[(5-Chloro-2-thienyl)sulfonyl]amino}-4-(methyloxy)-1H-indazol-1-yl]methyl}phenyl)methyl]-N^2,N^2-dimethylglycinamide trifluoroacetate] | ≤ 126
COc1cccc2c1c(NS(=O)(=O)c1ccc(Cl)s1)nn2Cc1cccc(CNC(=O)[C@@H](N)Cc2ccccc2)c1 [Example 47, N-[(3-{[3-{[(5-Chloro-2-thienyl)sulfonyl]amino}-4-(methyloxy)-1H-indazol-1-yl]methyl}phenyl)methyl]-L-phenylalaninamide] | ≤ 126
COc1cccc2c1c(NS(=O)(=O)c1ccc(C)s1)nn2Cc1cccc(CNC(=O)[C@H]2COCCN2)c1 [Example 160, (3R)—N-({3-[(4-(Methyloxy)-3-{[(5-methyl-2-thienyl)sulfonyl]amino}-1H-indazol-1-yl)methyl]phenyl}methyl)-3-] | ≤ 126
CCN(CC)C(=O)c1ccc(Cn2nc(NS(=O)(=O)c3ccc(Cl)s3)c3c(OC)cccc32)cc1 [Example 163, 4-{[3-{[(5-Chloro-2-thienyl)sulfonyl]amino}-4-(methyloxy)-1H-indazol-1-yl]methyl}-N,N-diethylbenzamide] | > 1000
COc1cccc2c1c(NS(=O)(=O)c1ccc(Cl)s1)nn2Cc1cccc(C(=O)NCCN(C)C)c1 [Example 65, 3-{[3-{[(5-Chloro-2-thienyl)sulfonyl]amino}-4-(methyloxy)-1H-indazol-1-yl]methyl}-N-[2-(dimethylamino)ethyl]benzamide] | ≤ 126
CNC(=O)Cc1cccc(Cn2nc(NS(=O)(=O)c3ccc(Cl)s3)c3c(OC)cccc32)c1 [Example 63, 2-(3-{[3-{[(5-Chloro-2-thienyl)sulfonyl]amino}-4-(methyloxy)-1H-indazol-1-yl]methyl}phenyl)-N-methylacetamide] | ≤ 126
COCC(=O)NCc1cccc(Cn2nc(NS(=O)(=O)c3ccc(Cl)s3)c3c(OC)cccc32)c1 [Example 30, N-[(3-{[3-{[(5-Chloro-2-thienyl)sulfonyl]amino}-4-(methyloxy)-1H-indazol-1-yl]methyl}phenyl)methyl]-2-(methyloxy)acetamide] | ≤ 126
CNCC(=O)NCc1cccc(Cn2nc(NS(=O)(=O)c3ccc(Cl)s3)c3c(O)cccc32)c1 [Example 112, N^1-({3-[(3-{[(5-chloro-2-thienyl)sulfonyl]amino}-4-hydroxy-1H-indazol-1-yl)methyl]phenyl}methyl)-N^2-methylglycinamide formate salt] | ≤ 126
COc1cccc2c1c(NS(=O)(=O)c1ccc(C)s1)nn2Cc1cccc(C(N)=O)c1 [Example 66, 3-[(4-(Methyloxy)-3-{[(5-methyl-2-thienyl)sulfonyl]amino}-1H-indazol-1-yl)methyl]benzamide] | ≤ 126
COc1cccc2c1c(NS(=O)(=O)c1ccc(Cl)s1)nn2Cc1cccc(CNC=O)c1 [Example 5, 5-Chloro-N-[1-({3-[(formylamino)methyl]phenyl}methyl)-4-(methyloxy)-1H-indazol-3-yl]-2-thiophenesulfonamide] | ≤ 126
COc1cccc2c1c(NS(=O)(=O)c1ccc(Cl)s1)nn2Cc1cccc(CNC(=O)C2COCCN2C)c1 (stereo not shown) [Example 96, N-[(3-{[3-{[(5-Chloro-2-thienyl)sulfonyl]amino}-4-(methyloxy)-1H-indazol-1-yl]methyl}phenyl)methyl]-4-methyl-3-morpholinecarboxamide] | ≤ 126
O=C(NCc1cccc(Cn2nc(NS(=O)(=O)c3ccc(Cl)s3)c3c(O)cccc32)c1)[C@@H]1COCCN1 [Example 166, (3S)—N-({3-[(3-{[(5-Chloro-2-thienyl)sulfonyl]amino}-4-hydroxy-1H-indazol-1-yl)methyl]phenyl}methyl)-3-morpholinecarboxamide formate salt] | ≤ 126
